Laboratory results reported in patent US20020018748A1, “Method for targeted radiotherapy, pain palliation and imaging of osteoblastic skeletal tumors and composition therefore” (priority 2000, published 2002).
Values joined by “and” are separate entries in the source; they are usually repeats but may differ in a detail not shown here. Equal values may be shown once.

Key:
[1] = test system: bone metastases from prostate cancer; assay: Fractional uptake of a tracer dose of ^85Sr chloride by bone metastases, measured with gamma camera / external counting; format: in vivo, patient
Procedure: To calculate the activity (mCi or MBq) of the dose of a carrier-free salt of ^89Sr, preferably chloride, to be administered to palliate painful metastases in a patient, 1 mCi (37 MBq) of ^85Sr chloride with standard specific activity [120 μCi (4.44 MBq)/mg of strontium) is injected into the patient and radioactivity in each metastasis is measured 24 hours after injection. The fractional uptake in each metastasis (relative osteoblastic activity) is calculated by expressing the radioactivity measured in each metastasis as a percent of the administered dose. The sum of the fractional uptake in all metastases is taken as the “metastatic burden” of the patient.
Measurements of radioactivity can be guided by a recent bone scan with ^99Tc^m-MDP (methylene diphosphonate). These measurements can be made by external point counting with a collimated scintillation detector, or by using a gamma camera. […]
The gamma camera needs to be equipped with a high-energy collimator. Anterior and posterior images of the lesions are recorded for 15 minutes. […]
The count rate in each metastasis is calculated by the square root of the product of the count rates in the anterior (A) and posterior (P) images divided by e^−μd: [(cps A) ×(cps P)/(e^−μd)]. The exponential term accounts for the attenuation of the gamma photons by the patient's tissues, where μ is the attenuation coefficient for the gamma rays of ^85Sr, previously measured in a water phantom, and d is the patent thickness measured in cm from x-ray images. The attenuation coefficient needs to be experimentally estimated only once; sensitivity should be measured using an ^85Sr source in a soft-tissue phantom before each imaging session because it varies with time. […]
The sum of the fractional uptake of ^85Sr chloride by all detectable metastases (“metastatic burden”), is used to define the activity (mCi or MBq) of ^89Sr chloride needed to palliate painful metastases in a patient. […] The fractional uptake measured in these metastases was 3%, 4%, 7%, 10%, and 17% of the dose respectively, with a total “metastatic burden” of 41% (3+4+7+10+17=41) (Table II). […]

[2] = test system: bone marrow; conditions: repeat doses at 3-month intervals; cited from earlier work
[3] = intravenous single injection; reduced by slow administration over at least two minutes; cited from earlier work
[4] = test system: metastases; conditions: in vivo; cited from earlier work
[5] = test system: painful bone metastases; conditions: cited from earlier work
[6] = test system: metastatic lesions in bone; assay: Absorbed radiation dose estimates by direct measurements of radioactivity in bone metastases; format: in vivo; conditions: after 4 mCi (148 MBq), 120 μCi/mg of strontium
Source text: Absorbed radiation dose estimates for metastatic lesions in bone, obtained by direct measurements of radioactivity in bone metastases after the administration of 4 mCi (148 MBq) of ^89Sr chloride at standard specific activity (120 μCi [4.44 MBq]/mg of strontium), varied from 1.3 to 64 Gy, with a mean of 18±16 Gy. The average total absorbed dose in normal bone sites was 1.1±0.4 Gy. The metastases (target) to normal bone (non-target) dose ratio in individual samples varied from 8±4 to 40±25. If compared to absorbed radiation dose provided by external beam radiotherapy, the absorbed radiation dose delivered by ^89Sr chloride should be large enough to produce a therapeutic effect on the metastases. But absorbed radiation doses delivered by ^89Sr chloride may not be compared with those delivered by external beam radiotherapy because the different dose rates used in each methodology. External beam radiotherapy delivers very high dose rates in a very short time, while ^89Sr chloride provides very low dose rates during a long period. These differences reduce the biological effect of a given dose of ^89Sr because there is repair of sublethal damage.

[7] = test system: bone metastases; assay: Theoretical (calculated) distribution of ^89Sr chloride doses in the metastases, from the ^85Sr chloride uptake; format: in vivo, patient; conditions: for total amount of strontium incorporated by all metastases: 4 mCi dose
Procedure: The fractional uptake (%) of a standard dose ^89Sr chloride for pain palliation in bone metastasis [4 mCi (148 MBq)] with specific activity of 120 μCi (4.44 MBq)/mg of strontium) (B) is calculated from the fractional uptake (%) of 1 mCi of ^85Sr chloride at the same specific activity (A) is illustrated in Table II.
The fractional uptake (%) of a standard dose of 4.0 mCi (148 MBq) of ^89Sr chloride at the standard specific activity is calculated for each metastasis from the results obtained with ^85Sr chloride. Since the specific activity is the same for both radionuclides, the fractional uptake would be similar if the same physiological conditions are maintained. However, the activity (μCi) and the amount of strontium (mg) incorporated by the metastases would be increased by four times because the activity of the administered dose is increased from 1 mCi to 4 mCi. Theoretically, the fractional uptake of a standard dose of ^89Sr chloride by the metastatic burden would be 41.0% of the dose (1.64 mCi or 60.7 MBq), leaving in blood a remaining fraction of 59% of the dose (2.36 mCi or 87.3 MBq) available for renal excretion and for incorporation by normal bone.
The absolute amount of strontium (mg) incorporated by each lesion can be calculated by multiplying the activity of the administered dose (mCi or MBq) by the fractional uptake by a given metastasis (% of the dose), and dividing the result by the specific activity of the dose (mCi or MBq/mg of strontium):
Strontium (mg)=Activity of the dose (mCi) × fractional uptake (%)/specific activity (mCi/mg Sr)
In Table II it is also appreciated that the fractional uptake is the same for both the activity (μCi) and the absolute amount (mg) of strontium incorporated by the metastases. One mg of strontium corresponds to 3% of the element in the dose. One hundred and twenty μCi of ^89Sr correspond to […] of the activity in the dose. One mCi of strontium chloride with specific activity of 120 μCi/mg of strontium contains 8.333 mg of strontium (Table I), therefore, 4 mCi would contain 33.333 mg of the element. A fractional uptake of 41.0% corresponds to 410 μCi and 3.416 mg when using 1 mCi, and to 1.64 mCi and 13.667 mg when the dose is increased to 4 mCi (Table II). The amount of strontium (mg) taken up by the metastasis per unit time should be constant if the physiological parameters are maintained. Dose calculation may be guided by the relationship of the amount of strontium in carrier-free ^89Sr chloride ([…]) and that which is in an equal amount of its low specific activity counterpart (120 μCi/mg of Sr). The amount of strontium in 4 mCi of low specific activity ^89Sr chloride (120 μCi/mg of Sr), is 33.333 mg, while in carrier-free ^89Sr chloride (17 Ci/mg of Sr) it is reduced to 235.2 ng. The relationship between these quantities would be:
Theoretical distribution of ^89Sr chloride at different specific activities assuming the same fractional uptake (% of the dose) by the metastases. (A) ^89Sr chloride with low specific activity [120 μCi (4.44 MBq)/mg of strontium]; (B) carrier-free ^89Sr chloride [17 Ci (629 GBq)/mg of strontium] is illustrated in Table III.
If the “metastatic burden” takes up 41% of a 4mCi dose of the low specific activity ^89Sr chloride (13.664 mg of strontium) (Tables II and III), it is evident that the very small amount of strontium in the carrier-free ^89Sr chloride dose (235.2 ng) would be totally incorporated by the metastases, resulting in a fractional uptake of 100% y the metastatic burden. To correct for this effect, the data in Table IlI should be multiplied by the ratio between 100% uptake and the fractional uptake by the metastatic burden by using 89Sr chloride at the lower specific activity. In this case, the ratio is 100%/41%=2.439. […]

[8] = standard dose 4 mCi (148 MBq), 120 μCi/mg of strontium, theoretical
[9] = standard dose 4 mCi, 120 μCi/mg of strontium, theoretical
[10] = carrier-free, 1.64 mCi dose, theoretical

## [85Sr+2].[Cl-].[Cl-] [^85Sr Chloride (120 μCi/mg Sr), ^85Sr chloride]
[1]; 1 mCi dose, 120 μCi/mg Sr, 24 hours after injection, r8-r12 = metastasis 1-5, r13 = Total, one patient
  Uptake (%): 7.0% and 10.0% and 17.0% and 41.0% and 3.0% and 4.0%
[1]; 1 mCi, 120 μCi/mg of strontium, five metastases of one patient with prostate cancer, values respectively
  fractional uptake measured in these metastases: 3 % of the dose and 4 % of the dose and 7 % of the dose and 10 % of the dose and 17 % of the dose
[1]; 1 mCi, 120 μCi/mg of strontium, one patient, five metastases
  total "metastatic burden" (sum of fractional uptake in all metastases): 41%

## [89Sr+2].[Cl-].[Cl-] [^89Sr Chloride (120 μCi/mg Sr), ^89Sr chloride]
[2]
  toxicity of additional injections: no major toxicity
[3]
  effect during the injection: facial flushing during the injection
[4]
  ratio of the uptake by metastases as compared to the uptake in normal bones: higher than 10 to 1
[5]; after ^89Sr administration
  duration of response, mean: 6 months
[5]; survey in the United States in 1995, patients treated with bone-seeking radionuclides
  overall effective pain palliation: 81%
[5]; survey in the United States in 1995
  patients achieving a complete remission of pain: 15%
[6]
  absorbed radiation dose for metastatic lesions in bone, mean: 18±16 Gy
  average total absorbed dose in normal bone sites: 1.1±0.4 Gy
  metastases (target) to normal bone (non-target) dose ratio in individual samples: 8-40
[7]; 120 μCi/mg of strontium, theoretical
  total amount of strontium incorporated by all metastases: 13.664 mg
[7]; 120 μCi/mg of strontium, theoretical, listed as low specific activity ^89Sr chloride
  total amount of strontium incorporated by all metastases: 13.664 mg
[7]; 120 μCi/mg of strontium, theoretical, listed as low specific activity ^89Sr chloride (120 μCi/mg of Sr)
  total amount of strontium incorporated by all metastases: 13.667 mg
[7]; over the five metastases of Table II
  mean fractional uptake: 8.2%
[7]; [8]
  activity taken up by the metastatic burden: 1.64 mCi
  fractional uptake by the metastatic burden: 41 % of the dose
[7]; standard dose 4 mCi (148 MBq), 120 μCi/mg of strontium, theoretical, listed as low specific activity ^89Sr chloride
  fractional uptake by the metastatic burden: 41 % of the dose
[7]; [9]
  activity remaining in blood, available for renal excretion and incorporation by normal bone: 2.36 mCi
  fraction remaining in blood, available for renal excretion and incorporation by normal bone: 59 % of the dose

## [89Sr+2].[Cl-].[Cl-] [^89Sr Chloride (17 Ci/mg Sr), ^89Sr chloride]
[7]; 4 mCi (148 MBq) carrier-free vs 120 μCi/mg, ratio 100%/41%
  fractional uptake by the metastases relative to the same activity at standard specific activity: 2.439 times
[7]; carrier-free, 1.64 mCi (60.68 MBq) dose, metastasis No. 4, No. 5, No. 1, No. 2, No. 3, respectively, listed as carrier-free ^89Sr chloride
  activity incorporated by individual metastases: 400 μCi and 680 μCi and 120 μCi and 160 μCi and 280 μCi
[7]; carrier-free, 1.64 mCi dose, measured ratio multiplied by 2.439
  ratio metastases to normal bone, theoretical values: 20-98
[7]; [10]
  absolute amount of strontium taken up by the metastases: 96.422 ng
  fractional uptake by the metastatic burden: 100%
[7]; carrier-free, 4 mCi dose (235.2 ng strontium), theoretical
  fractional uptake by the metastatic burden: 100%
[7]; carrier-free, 4.1 mCi dose, metastasis 1-5 respectively, listed as carrier-free ^89Sr chloride
  activity received by individual metastases: 300 μCi and 400 μCi and 700 μCi and 1,000 μCi and 1,700 μCi
[7]; carrier-free, 5.466 mCi (202.2 MBq) dose, calculated
  mean absorbed radiation dose to the metastases: 60 Gy
